Experimental data reported in US11510928B2, “Use of mirtazapine in the treatment of inflammatory disorders, autoimmune disease and PBC” (UTI Limited Partnership, priority 2017, dated 2022).

Experiments:
[1] = tested on: antigen-induced arthritis (mBSA); assay: Antigen-induced arthritis (AIA) mouse model; assay type: in vivo; conditions: 20 mg/kg, 24 hrs post-antigen challenge
Description: The antigen-induced arthritis (AIA) mouse model is a well-characterized model that is extensively used to provide insights into the pathogenesis of RA. AIA is critically dependent on an early innate immune response (within 24 hrs post-induction) mediated by synovial TM's and neutrophils which drive subsequent adaptive immune responses and chronic joint inflammation. Proinflammatory cytokines (eg. TNFα, IL-17A and IL-1) and chemokines (eg. CXCL1, CXCL2) recruit neutrophils to the joint in this model. AIA is induced by the intradermal (tail base) injection of 500 μg methylated BSA (mBSA; Sigma) in 50 μl saline+complete Freund's adjuvant (CFA; Sigma) on day 0. 14 days later mice receive an antigen challenge with mBSA (10 μg/10 μl saline) injection into the left knee joint. At various time points after antigen challenge knee swelling is assessed using calipers, and the knee cavity exposed and inflammatory response and tissue injury assessed by immune cell analyses (cell phenotyping by FACS, using our published protocols), cytokine/chemokine expression (by Luminex® and qRT-PCR), and scoring of histological joint damage. Assessment of joint innate immune responses will occur at 24 and 48 hrs post-antigen challenge42. […] Hypernociception was measured before and 24 hrs post-antigen challenge using an automatic dynamic plantar algesiometer (Hugo Basile Inc).

PBC patients = assay: THIN database cohort study of PBC patients: decompensation, liver transplant and mortality free survival by drug usage; assay type: in vivo, human
Description: We conducted a cohort study using The Health Improvement Network (THIN). THIN is one of the largest medical databases in the UK^8, consisting of prospectively gathered electronic medical records from over 11.1 million patients^8. […] Data from participant general practitioners across the UK is exported to the THIN administrators and database, which is updated every 3 months^11. The THIN database records demographic data and clinical events using Read codes, prescription medications, and laboratory values^12.
We identified patients with PBC Read code “J6160” from April 1974 until May 2007. This cohort was followed until May 2012. We excluded patients having overlap syndrome with autoimmune hepatitis or primary sclerosing cholangitis. The first code of PBC identified in the THIN database was considered the index (ie. diagnosis) date. FIG. 10 provides a flow diagram illustrating the selection of the study population. The primary outcome was the first occurrence of one of the three events following the diagnosis of PBC: (1) decompensation of cirrhosis (ascites, spontaneous bacterial peritonitis, hepatic encephalopathy, hepatorenal syndrome, variceal bleeding, jaundice, or hepatocellular carcinoma); (2) liver transplantation; or (3) death.
Read codes were used to identify patients with chronic depression disorder. Chronic depression was defined as follows: (1) never diagnosed with chronic depression; (2) past depression diagnosis prior to 90 days from PBC diagnosis; and (3) current depression diagnosis if a diagnosis was made within 90 days before or after a PBC diagnosis. Using THIN database therapy files, we assessed the impact of anti-depressant medications on outcomes of PBC patients (mortality, decompensation, and liver transplant).
For each anti-depressant medication, use was defined as follows: (1) never used the medication; (2) past use as defined as a previous code for medication use prior to 90 days of PBC diagnosis; and (3) current medication user if the medication code was identified within 90 days before or after a PBC diagnosis. We assessed the effect of each anti-depressant medication on study outcomes separately. Antidepressants were classified as typical or atypical and stratified accordingly. Atypical antidepressants include: Agomelatine, Bupropion and Mirtazapine. While typical antidepressants include the following groups: (a) Selective Serotonin Reuptake Inhibitors (SSRI): Citalopram, Escitalopram, Fluoxetine, Fluvoxamine, Paroxetine and Sertraline; (b) […] (SNRI): Desvenlafaxine, Duloxetine, Minacipran and Venlafaxine; (c) Serotonin modulators: Nefazodone, Trazodone and Vilazodone; (d) Tricyclics and tetracyclics: Amitriptyline, Amoxapine, Clomipramine, Desipramine, Doxepin, Imipramine, Maprotiline, Nortriptyline and Protriptyline, Trimiprramine; (e) Monamine oxidase inhibitors: Isocarboxazid, Phenelzine, Selegiline and Tranylcypromine.
We assessed age at diagnosis of PBC, sex, and the presence of coexisting liver disease (ie. chronic hepatitis either viral, alcoholic, or fatty liver disease; yes/no). Smoking status was classified (current, former, never smoked, or unknown status) at the time of PBC diagnosis, alcohol consumption was classified (current, former, never consumed alcohol, or unknown status) at PBC diagnosis. Ursodeoxycholic acid (UDCA) usage (ever/never recorded) was also determined.
In our primary analysis, we assessed demographic, clinical, and medication variables in the PBC cohort according to depression status. Where appropriate, we used the Fisher Exact test or Chi-Square test for categorical data, and the Kruskal-Wallis or Student's t-test for continuous data. Univariate analysis using Log Rank test and multivariate Cox Proportional Regression models were used to assess the impact of depression or anti-depressant medications on PBC outcomes as defined by death, decompensated cirrhosis, or liver transplant. […]

[2] = usage prior to PBC diagnosis vs none

Structure (SMILES): CN1CCN2c3ncccc3Cc3ccccc3C2C1 (centres unmarked) [Mirtazapine]
- AIA-induced hypernociception [1]: attenuates
- Joint total neutrophil recruitment [1]: reduces
- Synovial fluid CXCL1 levels [1]: but not CXCL1
- Synovial fluid IL-1α levels [1]: reduces
- Synovial fluid TNFα levels [1]: reduces
- Protective effect against liver decompensation, transplantation, or death (PBC patients; PBC cohort): over four-fold protective effect
- Requirement of liver transplant (PBC patients; PBC patients who had ever used the drug): None of the PBC patients who had ever used mirtazapine required liver transplant
- Multivariate model-2 HR (include age, gender, alcohol, URSO, depression, mirtazapine) (PBC patients; current usage (after PBC diagnosis) vs none): 0.23
- Univariate HR, 10-year decompensation, liver transplant and mortality free survival (PBC patients; current usage vs none): 0.22
- Adjusted HR, mortality (PBC patients; current usage, outcome assessed separately): 0.22
- Adjusted HR, liver decompensation (PBC patients; current usage, outcome assessed separately, not significant): 0.22
- Adjusted HR, decompensated cirrhosis, liver transplant and mortality (PBC patients; sensitivity analysis: only patients using UDCA (n=793), current usage): 0.21
- Multivariate model-2 HR (include age, gender, alcohol, URSO, depression, mirtazapine) (PBC patients; [2]): 0.94
- Univariate HR, 10-year decompensation, liver transplant and mortality free survival (PBC patients; [2]): 0.84
